Source: PubChem BioAssay (NCI)
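Values below derive from 48-hour exposures of cells grown in 96-well plates, with endpoints linearly interpolated between the two concentrations bracketing the appropriate inhibition level. GI50 = concentration required for 50% inhibition of growth. TGI denotes the concentration required for complete inhibition of growth.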

How the values were obtained:
Test in all cases: inhibition of tumour cell growth, NCI panel, 48 h
[1] = tested on: 786-0 renal
[2] = tested on: A498 renal
[3] = tested on: A549 NSCLC
[4] = tested on: ACHN renal
[5] = tested on: BT-549 breast
[6] = tested on: CAKI-1 renal
[7] = tested on: CCRF-CEM leukemia
[8] = tested on: COLO 205 colon
[9] = tested on: DU-145 prostate
[10] = tested on: EKVX NSCLC
[11] = tested on: HCC-2998 colon
[12] = tested on: HCT-116 colon
[13] = tested on: HCT-15 colon
[14] = tested on: HL-60(TB) leukemia
[15] = tested on: HOP-62 NSCLC
[16] = tested on: HOP-92 NSCLC
[17] = tested on: HS 578T breast
[18] = tested on: HT29 colon
[19] = tested on: IGROV1 ovarian
[20] = tested on: K-562 leukemia
[21] = tested on: KM12 colon
[22] = tested on: LOX IMVI melanoma
[23] = tested on: M14 melanoma
[24] = tested on: MALME-3M melanoma
[25] = tested on: MCF7 breast
[26] = tested on: MDA-MB-231 breast
[27] = tested on: MDA-MB-435
[28] = tested on: MDA-MB-468 breast
[29] = tested on: MOLT-4 leukemia

With `Cn1cc(-c2cc(N)n3nc(-c4c[nH]c5ccc(F)cc45)cc3n2)c2cc(Br)cnc21` the GI50 [1] was 8.47 µM, the TGI [1] was 22.2 µM and the GI50 [2] was > 100 µM. For the same molecule, the TGI [2] was > 100 µM, the GI50 [3] was 16.4 µM and the TGI [3] was > 100 µM. The GI50 [4] was 6.52 µM, the TGI [4] was 43.4 µM and the GI50 [5] was > 100 µM. The TGI [5] was > 100 µM, the GI50 [6] was 6.43 µM and the TGI [6] was > 100 µM. For the same molecule, the GI50 [7] was 3.45 µM, the TGI [7] was 20.2 µM and the GI50 [8] was 55.5 µM. The TGI [8] was > 100 µM, the GI50 [9] was 80.8 µM and the TGI [9] was > 100 µM. The GI50 [10] was > 100 µM, the TGI [10] was > 100 µM and the GI50 [11] was 4.2 µM. For the same molecule, the TGI [11] was 20.3 µM, the GI50 [12] was 32.2 µM and the TGI [12] was > 100 µM. For the same molecule, the GI50 [13] was 2.55 µM, the TGI [13] was 10.7 µM and the GI50 [14] was 9.35 µM. The TGI [14] was > 100 µM, the GI50 [15] was 62.2 µM and the TGI [15] was > 100 µM. For the same molecule, the GI50 [16] was 20.4 µM, the TGI [16] was > 100 µM and the GI50 [17] was > 100 µM. For the same molecule, the TGI [17] was > 100 µM, the GI50 [18] was 5.04 µM and the TGI [18] was 24.4 µM. For the same molecule, the GI50 [19] was 14.3 µM, the TGI [19] was > 100 µM and the GI50 [20] was 4.09 µM. For the same molecule, the TGI [20] was 50.2 µM, the GI50 [21] was 4 µM and the TGI [21] was > 100 µM. It also gave a GI50 [22] of 1.96 µM, a TGI [22] of 3.69 µM and a GI50 [23] of 12.3 µM. The TGI [23] was 27.4 µM, the GI50 [24] was 10.4 µM and the TGI [24] was 29.7 µM. It also gave a GI50 [25] of 4.11 µM, a TGI [25] of 22.7 µM and a GI50 [26] of 5.28 µM. The TGI [26] was 24.5 µM, the GI50 [27] was 21.6 µM and the TGI [27] was > 100 µM. The GI50 [28] was 4.64 µM, the TGI [28] was 18.5 µM and the GI50 [29] was 2.42 µM.
